Patent publication US11911610B2, “Methods for restoring sensitivity to TTFields in TTFields-resistant cancer cells with PTGER3 inhibitors” (Novocure GmbH, priority 2019, dated 2024)

Experiments:
U87R resistant cells = assay: Live cell count of TTFields-resistant GBM cells treated with drug with or without TTFields for 3 days; type: cell-based, human; settings: for sensitivity to TTFields: inhibitor + TTFields 200 kHz compared with TTFields alone, FIG. 14
Description: (§1) For the experiments summarized in FIG. 13, resistant human GBM cells were treated with either vehicle control or aspirin and with or without TTFields for 3 days. Drug was replenished daily. The numbers of live cells were quantified using a cell counter at the end point.
PTGER3 inhibitors can restore sensitivity to TTFields.

LN428R resistant cells = assay: as above; type: cell-based, human; settings: aspirin + TTFields, drug replenished daily, reduced from 85 k/dish, TTFields alone 70 k/dish
Description: as §1

LN827R cells = assay: as above; type: cell-based, human; settings: aspirin + TTFields, drug replenished daily, reduced from around 125 k/dish, TTFields alone increased count slightly
Description: as §1

[1] = system: TTFields-resistant GBM cells (U87R, L428R, and LN827R); assay: Reduction of resistance to TTFields in TTFields-resistant GBM cells (FIG. 13); type: cell-based, human; settings: Aspirin+TTFields compared with Vehicle+TTFields, 3 days
Description: as §1

[2] = system: human GBM cell lines (LN827); assay: Resistant cell line generation experiment with PTGER3 inhibitor (FIG. 16); type: cell-based; settings: L798,106 + TTFields, 5 cycles of 7 days
Excerpt: For the experiments summarized in FIG. 2, TTFields-resistant human GBM cell lines were generated by seeding LN827 cells at a density of 10,000/ml and treated with TTFields for in repeated 1-week cycles at a frequency of 200 kHz. For each cycle, cells were counted on day 2, day 4 and day 7. At the end of each cycle, the cells were re-seeded at the same density as on day 0, harvested and processed for RNAseq and cryopreservation for future analysis. Resistant cells emerged after at least four weeks of TTFields treatment.
The resistant cell line generation experiment using the original human GBM cell lines from FIG. 2 was repeated with two more groups that included a PTGER3 inhibitor (L798,106 and L798,106+TTFields) (FIG. 16). […] Cells were seeded and counted at the same cell density and time points. Each cycle lasts for 7 days within total of 5 cycles.

Compound	live cell count (U87R resistant cells; aspirin + TTFields, drug replenished daily, reduced from 150 k/dish, TTFields alone 125 k/dish)	live cell count (LN428R resistant cells)	live cell count (LN827R cells)	resistance to TTFields [1]	live cell count (U87R resistant cells; DG041 50 nM + TTFields 200 kHz, reduced from around 160 k/dish, TTFields alone 100 k/dish)	sensitivity to TTFields (U87R resistant cells)	live cell count (U87R resistant cells; L798,106 0.5 μM + TTFields 200 kHz, reduced from around 200 k/dish, TTFields alone 125 k/dish)	development of resistance to TTFields [2]
CC(=O)Oc1ccccc1C(=O)O [aspirin]	100 k/dish	40 k/dish	90 k/dish	significantly reduces resistance to TTFields				
Cc1cn(Cc2ccc(Cl)cc2Cl)c2c(/C=C/C(=O)NS(=O)(=O)c3cc(Cl)c(Cl)s3)cc(F)cc12 [DG041]					around 40 k/dish	restores sensitivity to TTFields		
COc1ccc(Br)cc1S(=O)(=O)NC(=O)/C=C/c1ccccc1Cc1ccc2ccccc2c1 [L798,106]						restores sensitivity to TTFields	25 k/dish	prevented the development of resistance to TTFields
